Like-named read-outs stand apart in the source and are kept apart here. Each block holds one compound with its values, some of them ahead of it.
What was measured:
Assay in all cases: biochemical
Set-up in all cases: DiscoveRx KINOMEscan active site-directed competition binding; percent of control kinase bound to immobilised ligand
[1] = biological target: T1, ABL1(M351T)-phosphorylated (Homo sapiens, UniProt P00519, M351T)
T1 construct: phosphorylated

[2] = biological target: T2, ABL1(T315I)-nonphosphorylated (Homo sapiens, UniProt P00519, T315I)
T2 construct: nonphosphorylated

BUB1 = BUB1 (Homo sapiens, UniProt O43683)
BUB1, sequence (O43683 whole entry): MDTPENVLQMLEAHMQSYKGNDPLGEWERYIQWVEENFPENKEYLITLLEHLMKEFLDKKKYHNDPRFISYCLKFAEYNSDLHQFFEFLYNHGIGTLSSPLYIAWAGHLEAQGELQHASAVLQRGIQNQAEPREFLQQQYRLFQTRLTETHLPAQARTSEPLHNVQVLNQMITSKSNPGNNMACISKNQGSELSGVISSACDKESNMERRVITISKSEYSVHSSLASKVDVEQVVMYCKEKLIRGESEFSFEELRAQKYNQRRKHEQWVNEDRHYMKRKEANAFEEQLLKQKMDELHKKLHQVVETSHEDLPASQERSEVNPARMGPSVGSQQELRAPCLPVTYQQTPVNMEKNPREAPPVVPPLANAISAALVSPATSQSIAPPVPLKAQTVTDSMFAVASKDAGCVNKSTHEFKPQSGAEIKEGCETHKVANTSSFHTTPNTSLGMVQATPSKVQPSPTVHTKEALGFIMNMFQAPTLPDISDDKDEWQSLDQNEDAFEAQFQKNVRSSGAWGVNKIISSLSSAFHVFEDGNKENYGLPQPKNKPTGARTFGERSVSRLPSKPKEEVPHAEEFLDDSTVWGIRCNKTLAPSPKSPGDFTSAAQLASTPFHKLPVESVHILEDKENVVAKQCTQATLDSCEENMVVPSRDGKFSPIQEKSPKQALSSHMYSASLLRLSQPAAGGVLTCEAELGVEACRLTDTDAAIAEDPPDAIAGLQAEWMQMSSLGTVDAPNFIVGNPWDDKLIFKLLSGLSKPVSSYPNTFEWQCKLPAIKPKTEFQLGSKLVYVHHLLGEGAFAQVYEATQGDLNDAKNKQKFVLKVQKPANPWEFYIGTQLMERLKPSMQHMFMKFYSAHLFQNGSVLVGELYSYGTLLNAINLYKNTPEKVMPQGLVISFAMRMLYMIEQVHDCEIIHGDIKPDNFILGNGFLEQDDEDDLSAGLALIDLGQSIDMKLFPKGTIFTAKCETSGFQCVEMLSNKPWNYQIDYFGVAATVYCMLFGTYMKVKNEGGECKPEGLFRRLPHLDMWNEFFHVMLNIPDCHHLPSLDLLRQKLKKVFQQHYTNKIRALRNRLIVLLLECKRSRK

CDK9 = CDK9 (Homo sapiens, UniProt P50750)
CDK9, sequence (P50750 whole entry): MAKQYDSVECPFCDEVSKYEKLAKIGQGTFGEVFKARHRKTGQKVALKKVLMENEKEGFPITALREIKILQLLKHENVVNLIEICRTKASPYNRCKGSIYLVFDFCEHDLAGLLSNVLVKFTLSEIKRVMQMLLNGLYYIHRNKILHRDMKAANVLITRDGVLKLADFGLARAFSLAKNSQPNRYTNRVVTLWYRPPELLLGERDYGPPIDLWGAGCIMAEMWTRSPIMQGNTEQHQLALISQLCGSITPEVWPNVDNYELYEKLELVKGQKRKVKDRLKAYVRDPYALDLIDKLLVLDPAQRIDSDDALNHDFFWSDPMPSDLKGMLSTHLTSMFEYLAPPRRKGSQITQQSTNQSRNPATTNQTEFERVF

CLK2 = CLK2 (Homo sapiens, UniProt P49760)
CSF1R = CSF1R (Homo sapiens, UniProt P07333)
CSF1R, sequence (P07333 whole entry): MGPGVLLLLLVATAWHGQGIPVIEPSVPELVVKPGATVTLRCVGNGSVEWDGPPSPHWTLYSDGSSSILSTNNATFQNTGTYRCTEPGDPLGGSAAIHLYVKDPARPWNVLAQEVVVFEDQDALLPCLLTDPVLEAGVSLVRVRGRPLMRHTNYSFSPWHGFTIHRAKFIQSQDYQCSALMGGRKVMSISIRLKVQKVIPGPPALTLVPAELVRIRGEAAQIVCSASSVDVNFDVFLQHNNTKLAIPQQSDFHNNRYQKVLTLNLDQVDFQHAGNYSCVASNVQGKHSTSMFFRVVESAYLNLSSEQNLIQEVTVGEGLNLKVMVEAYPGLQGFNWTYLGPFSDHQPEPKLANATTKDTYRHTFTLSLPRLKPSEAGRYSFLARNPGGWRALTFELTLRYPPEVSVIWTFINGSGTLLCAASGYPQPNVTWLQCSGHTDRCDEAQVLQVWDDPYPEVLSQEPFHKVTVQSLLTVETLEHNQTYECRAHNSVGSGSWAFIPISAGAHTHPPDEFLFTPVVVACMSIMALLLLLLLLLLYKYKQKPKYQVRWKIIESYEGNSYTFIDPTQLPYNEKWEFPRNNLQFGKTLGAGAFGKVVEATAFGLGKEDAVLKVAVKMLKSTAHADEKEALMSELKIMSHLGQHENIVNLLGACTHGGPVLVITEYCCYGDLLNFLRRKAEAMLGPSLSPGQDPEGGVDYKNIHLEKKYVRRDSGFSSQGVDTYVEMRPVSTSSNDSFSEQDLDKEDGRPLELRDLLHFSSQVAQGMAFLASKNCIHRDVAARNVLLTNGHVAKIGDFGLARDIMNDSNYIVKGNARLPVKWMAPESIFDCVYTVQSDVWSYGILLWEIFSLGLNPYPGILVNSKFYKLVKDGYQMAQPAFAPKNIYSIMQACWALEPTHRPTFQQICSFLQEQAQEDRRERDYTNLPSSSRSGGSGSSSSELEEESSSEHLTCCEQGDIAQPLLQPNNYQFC

ERK3 = biological target: T3, ERK3 (Homo sapiens, UniProt Q16659)
T3 construct: gene MAPK6

MAP4K5 = MAP4K5 (Homo sapiens, UniProt Q9Y4K4)
MEK2 = biological target: T4, MEK2 (Homo sapiens, UniProt P36507)
T4 construct: gene MAP2K2
T4 sequence (P36507 whole entry): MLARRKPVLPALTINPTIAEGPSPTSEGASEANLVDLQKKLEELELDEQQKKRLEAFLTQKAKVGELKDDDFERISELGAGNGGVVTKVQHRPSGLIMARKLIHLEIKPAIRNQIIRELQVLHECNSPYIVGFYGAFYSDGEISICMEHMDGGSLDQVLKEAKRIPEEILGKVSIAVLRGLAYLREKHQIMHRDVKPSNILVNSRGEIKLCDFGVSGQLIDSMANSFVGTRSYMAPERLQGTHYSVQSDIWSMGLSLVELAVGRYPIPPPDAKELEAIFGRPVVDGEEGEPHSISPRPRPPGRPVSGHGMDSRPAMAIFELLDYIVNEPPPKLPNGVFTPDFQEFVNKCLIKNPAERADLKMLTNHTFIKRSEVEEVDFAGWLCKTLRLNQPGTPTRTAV

PLK3 = PLK3 (Homo sapiens, UniProt Q9H4B4)
PLK3, sequence (Q9H4B4 whole entry): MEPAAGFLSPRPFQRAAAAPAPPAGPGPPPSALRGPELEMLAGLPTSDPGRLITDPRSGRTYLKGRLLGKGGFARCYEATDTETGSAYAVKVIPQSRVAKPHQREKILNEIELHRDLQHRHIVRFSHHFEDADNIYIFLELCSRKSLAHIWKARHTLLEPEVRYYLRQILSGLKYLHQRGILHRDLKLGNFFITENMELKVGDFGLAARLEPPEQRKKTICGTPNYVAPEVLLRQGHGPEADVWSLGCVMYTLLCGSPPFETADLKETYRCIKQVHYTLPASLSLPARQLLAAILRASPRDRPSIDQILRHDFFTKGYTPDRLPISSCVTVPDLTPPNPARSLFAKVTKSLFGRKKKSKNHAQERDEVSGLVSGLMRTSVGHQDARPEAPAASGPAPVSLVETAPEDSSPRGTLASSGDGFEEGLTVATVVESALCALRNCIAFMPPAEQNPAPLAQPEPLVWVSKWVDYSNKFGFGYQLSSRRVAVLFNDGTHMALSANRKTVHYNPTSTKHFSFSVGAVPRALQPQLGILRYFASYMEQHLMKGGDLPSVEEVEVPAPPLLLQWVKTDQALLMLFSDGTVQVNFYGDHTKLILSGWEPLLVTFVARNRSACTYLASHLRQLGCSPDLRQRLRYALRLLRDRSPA

PRKR = biological target: T5, PRKR (Homo sapiens, UniProt P19525)
T5 construct: gene EIF2AK2
T5 sequence (P19525 whole entry): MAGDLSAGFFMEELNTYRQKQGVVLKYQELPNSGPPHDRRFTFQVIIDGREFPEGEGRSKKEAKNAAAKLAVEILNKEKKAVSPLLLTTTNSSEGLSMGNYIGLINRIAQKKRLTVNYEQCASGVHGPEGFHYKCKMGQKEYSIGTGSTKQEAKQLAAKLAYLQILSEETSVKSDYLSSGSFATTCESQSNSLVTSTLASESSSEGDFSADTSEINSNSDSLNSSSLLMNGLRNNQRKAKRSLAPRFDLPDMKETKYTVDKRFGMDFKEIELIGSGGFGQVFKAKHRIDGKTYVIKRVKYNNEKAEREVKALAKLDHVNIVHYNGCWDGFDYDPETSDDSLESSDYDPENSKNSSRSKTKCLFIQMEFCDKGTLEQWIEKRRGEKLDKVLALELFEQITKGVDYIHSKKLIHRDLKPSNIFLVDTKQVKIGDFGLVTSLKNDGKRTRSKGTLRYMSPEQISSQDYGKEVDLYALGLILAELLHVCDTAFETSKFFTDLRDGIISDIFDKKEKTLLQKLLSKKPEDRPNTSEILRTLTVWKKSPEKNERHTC

TRKB = biological target: T6, TRKB (Homo sapiens, UniProt Q16620)
T6 construct: gene NTRK2
T6 sequence (Q16620 whole entry): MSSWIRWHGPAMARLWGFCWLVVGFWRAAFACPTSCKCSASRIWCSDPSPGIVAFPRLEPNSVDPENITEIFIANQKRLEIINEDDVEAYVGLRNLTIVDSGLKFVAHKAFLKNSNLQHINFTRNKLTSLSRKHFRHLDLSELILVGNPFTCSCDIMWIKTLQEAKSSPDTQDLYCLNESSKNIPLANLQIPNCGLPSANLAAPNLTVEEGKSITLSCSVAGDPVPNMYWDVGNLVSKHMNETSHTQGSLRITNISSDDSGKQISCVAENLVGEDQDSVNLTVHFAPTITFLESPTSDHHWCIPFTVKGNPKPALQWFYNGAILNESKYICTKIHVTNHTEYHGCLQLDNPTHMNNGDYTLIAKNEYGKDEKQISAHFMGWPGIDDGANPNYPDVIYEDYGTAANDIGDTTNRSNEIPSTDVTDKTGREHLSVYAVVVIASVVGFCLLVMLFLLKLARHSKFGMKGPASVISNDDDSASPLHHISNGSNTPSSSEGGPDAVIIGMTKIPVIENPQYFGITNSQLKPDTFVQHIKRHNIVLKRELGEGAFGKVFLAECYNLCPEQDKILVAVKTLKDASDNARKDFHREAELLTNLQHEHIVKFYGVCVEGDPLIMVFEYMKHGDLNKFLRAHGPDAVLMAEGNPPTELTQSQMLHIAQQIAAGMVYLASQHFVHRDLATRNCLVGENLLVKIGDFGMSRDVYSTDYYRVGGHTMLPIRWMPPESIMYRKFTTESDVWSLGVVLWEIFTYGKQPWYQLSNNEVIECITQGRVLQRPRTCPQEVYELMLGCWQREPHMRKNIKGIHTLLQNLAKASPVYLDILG

ULK2 = biological target: T7, ULK2 (Homo sapiens, UniProt Q8IYT8)
T7 sequence (Q8IYT8 1-1036): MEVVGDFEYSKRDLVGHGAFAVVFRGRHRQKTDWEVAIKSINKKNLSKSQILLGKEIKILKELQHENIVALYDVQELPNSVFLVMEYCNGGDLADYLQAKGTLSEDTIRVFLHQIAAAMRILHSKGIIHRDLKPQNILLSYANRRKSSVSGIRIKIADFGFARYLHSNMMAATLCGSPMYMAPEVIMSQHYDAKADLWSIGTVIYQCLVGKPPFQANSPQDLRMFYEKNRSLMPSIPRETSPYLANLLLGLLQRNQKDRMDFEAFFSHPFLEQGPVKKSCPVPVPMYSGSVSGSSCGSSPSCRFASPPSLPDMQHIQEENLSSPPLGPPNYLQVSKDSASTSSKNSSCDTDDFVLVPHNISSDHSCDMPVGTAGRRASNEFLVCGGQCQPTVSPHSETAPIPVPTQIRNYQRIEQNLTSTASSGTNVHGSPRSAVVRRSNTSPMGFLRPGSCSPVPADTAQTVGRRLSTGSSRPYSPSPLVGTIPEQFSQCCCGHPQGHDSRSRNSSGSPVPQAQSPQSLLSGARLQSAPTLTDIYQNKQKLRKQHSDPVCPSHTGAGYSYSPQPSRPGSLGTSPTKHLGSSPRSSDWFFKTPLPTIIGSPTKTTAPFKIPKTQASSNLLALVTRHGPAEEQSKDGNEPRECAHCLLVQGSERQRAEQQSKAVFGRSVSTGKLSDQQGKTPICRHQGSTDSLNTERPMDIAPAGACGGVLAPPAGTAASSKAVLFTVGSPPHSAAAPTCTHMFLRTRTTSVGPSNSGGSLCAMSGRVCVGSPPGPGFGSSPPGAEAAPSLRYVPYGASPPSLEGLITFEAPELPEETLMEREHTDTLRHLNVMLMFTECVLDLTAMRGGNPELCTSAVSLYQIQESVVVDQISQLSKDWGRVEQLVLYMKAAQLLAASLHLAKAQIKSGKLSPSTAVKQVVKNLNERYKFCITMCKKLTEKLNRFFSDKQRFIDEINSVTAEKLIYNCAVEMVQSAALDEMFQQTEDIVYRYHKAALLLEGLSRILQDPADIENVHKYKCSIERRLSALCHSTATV

WNK3 = WNK3 (Homo sapiens, UniProt Q9BYP7)
[3] = read-out: Olaparib / %Ctrl @ 10000nM
[4] = read-out: Talazoparib (BMN 673) / %Ctrl @ 10000nM
[5] = read-out: Rucaparib / %Ctrl @ 10000nM, binding competition, % of control
[6] = read-out: Niraparib (MK-4827) / %Ctrl @ 10000nM

percent of control binding at 10 µM [1, 3]: 91%
percent of control binding at 10 µM [2, 3]: 79%
percent of control binding at 10 µM (BUB1; [3]): 83%
percent of control binding at 10 µM (CDK9; [3]): 100%
percent of control binding at 10 µM (CLK2; [3]): 100%
percent of control binding at 10 µM (CSF1R; [3]): 95%
percent of control binding at 10 µM (ERK3; [3]): 95%
percent of control binding at 10 µM (MAP4K5; [3]): 96%
percent of control binding at 10 µM (MEK2; [3]): 87%
percent of control binding at 10 µM (PLK3; [3]): 98%
percent of control binding at 10 µM (PRKR; [3]): 94%
percent of control binding at 10 µM (TRKB; [3]): 76%
percent of control binding at 10 µM (ULK2; [3]): 85%
percent of control binding at 10 µM (WNK3; [3]): 88%
SMILES: O=C(c1cc(Cc2n[nH]c(=O)c3ccccc23)ccc1F)N1CCN(C(=O)C2CC2)CC1 [Olaparib]

percent of control binding at 10 µM [1, 4]: 98%
percent of control binding at 10 µM [2, 4]: 75%
percent of control binding at 10 µM (BUB1; [4]): 100%
percent of control binding at 10 µM (CDK9; [4]): 100%
percent of control binding at 10 µM (CLK2; [4]): 94%
percent of control binding at 10 µM (CSF1R; [4]): 99%
percent of control binding at 10 µM (ERK3; [4]): 100%
percent of control binding at 10 µM (MAP4K5; [4]): 100%
percent of control binding at 10 µM (MEK2; [4]): 57%
percent of control binding at 10 µM (PLK3; [4]): 90%
percent of control binding at 10 µM (PRKR; [4]): 78%
percent of control binding at 10 µM (TRKB; [4]): 100%
percent of control binding at 10 µM (ULK2; [4]): 100%
percent of control binding at 10 µM (WNK3; [4]): 100%
SMILES: Cn1ncnc1[C@H]1c2n[nH]c(=O)c3cc(F)cc(c23)N[C@@H]1c1ccc(F)cc1 [Talazoparib]

percent of control binding at 10 µM [1, 5]: 75%
percent of control binding at 10 µM [2, 5]: 72%
percent of control binding at 10 µM (BUB1; [5]): 48%
percent of control binding at 10 µM (CDK9; [5]): 78%
percent of control binding at 10 µM (CLK2; [5]): 32%
percent of control binding at 10 µM (CSF1R; [5]): 94%
percent of control binding at 10 µM (ERK3; [5]): 90%
percent of control binding at 10 µM (MAP4K5; [5]): 98%
percent of control binding at 10 µM (MEK2; [5]): 79%
percent of control binding at 10 µM (PLK3; [5]): 60%
percent of control binding at 10 µM (PRKR; [5]): 76%
percent of control binding at 10 µM (TRKB; [5]): 66%
percent of control binding at 10 µM (ULK2; [5]): 74%
percent of control binding at 10 µM (WNK3; [5]): 86%
SMILES: CNCc1ccc(-c2[nH]c3cc(F)cc4c3c2CCNC4=O)cc1 [Rucaparib]

SMILES: NC(=O)c1cccc2cn(-c3ccc([C@@H]4CCCNC4)cc3)nc12 [Niraparib]
percent of control binding at 10 µM [1, 6]: 100%
percent of control binding at 10 µM [2, 6]: 90%
percent of control binding at 10 µM (BUB1; [6]): 97%
percent of control binding at 10 µM (CDK9; [6]): 100%
percent of control binding at 10 µM (CLK2; [6]): 36%
percent of control binding at 10 µM (CSF1R; [6]): 91%
percent of control binding at 10 µM (ERK3; [6]): 81%
percent of control binding at 10 µM (MAP4K5; [6]): 100%
percent of control binding at 10 µM (MEK2; [6]): 74%
percent of control binding at 10 µM (PLK3; [6]): 85%
percent of control binding at 10 µM (PRKR; [6]): 91%
percent of control binding at 10 µM (TRKB; [6]): 96%
percent of control binding at 10 µM (ULK2; [6]): 93%
percent of control binding at 10 µM (WNK3; [6]): 100%

Source: PMC7026418, “The kinase polypharmacology landscape of clinical PARP inhibitors” (Scientific Reports, 2020)
